Results from publication PMC6770006, “Novel Heat Shock Protein 90 Inhibitors Suppress P-Glycoprotein Activity and Overcome Multidrug Resistance in Cancer Cells” (International Journal of Molecular Sciences, 2019).
Entries after “also recorded” stand apart in the source; their conditions may differ.

Experiments:
P-gp expression = test: Flow cytometric analysis of P-gp expression; format: cell-based, human; settings: 72 h; for Change in P-gp expression, DLD1 / Change in P-gp expression, NCI-H460: 5 µM 5, 200 nM 7, 100 nM 9, 10 nM TQ, 50 nM DOX, 50 nM PTX
Method: P-glycoprotein expression level in NCI-H460, NCI-H460/R, DLD1, and DLD1-TxR and cells was measured by flow cytometry. All cell lines were seeded in adherent 6-well plates and treated with Hsp90 inhibitors for 72 h at the following concentrations: 5 µM compound 5, 200 nM compound 7, 100 nM compound 9 (NCI-H460 and DLD1), and 10 µM compound 5, 500 nM compound 7, 500 nM compound 9 (NCI-H460/R and DLD1-TxR). Cells were also treated with 10 nM TQ, a non-competitive P-gp inhibitor, which served as a positive control. In addition, sensitive cells (NCI-H460 and DLD1) were treated with 50 nM DOX and 50 nM PTX that served as positive controls for the induction of P-gp expression. Then, cells were collected by trypsinization, washed with PBS, and directly immunostained by FITC-conjugated anti-P-gp antibody according to the manufacturer’s protocol. The samples were kept in the dark until the analysis on CyFlow Space Partec flow cytometer (Sysmex Partec GmbH, Görlitz, Germany). The fluorescence of FITC-conjugated anti-P-gp was detected on fluorescence channel 1 (FL1-H) at 530 nm. A minimum of 10,000 events were collected for each sample (the gate excluded cell debris and dead cells) and the obtained results were analyzed with Summit software v4.3 (Dako Colorado Inc., Fort Collins, CO, USA).

MRC-5 cells = test: MTT assay, normal embryonic lung fibroblasts MRC-5; format: cell-based, human; settings: for IC50: Homo sapiens, MRC5, MTT, 72 h, normal fibroblasts, read-out: Cell growth inhibition IC50, MRC-5; for Relative Selectivity: IC50 in MRC-5 cells / average IC50 of four cancer cell lines
Method: (§1) A series of 3-aryl-naphtho[2,3-d]isoxazole-4,9-diones were synthesized (Scheme 1, Figure 1) and their growth inhibition activity was tested in vitro on human non-small cell lung carcinoma NCI-H460, colorectal carcinoma DLD1 and their corresponding MDR cells (NCI-H460/R and DLD1-TxR, respectively), as well as normal embryonic lung fibroblasts MRC-5. The differences in cell growth inhibition between cancer and normal cells obtained by the MTT assay after 72 h treatment are presented in Table 1. The effect of compounds is presented as IC50 values that correspond to the 50% of cell growth inhibition.
(§2) Cell viability was assessed by the MTT assay (AppliChem GmbH, Darmstadt, Germany). Cells grown in 25 cm^2 tissue flasks were trypsinized and 1000 cells/well were seeded into flat-bottomed 96-well tissue culture plates and incubated overnight. Subsequently, the cells were treated with increasing concentrations of Hsp90 inhibitors for 72 h: compound 3 (0.1–2.5 µM), compound 4 (0.25–5 µM), compound 5 (0.5–25 µM), compound 6 (50–1000 nM), compound 7 (10–250 nM), compound 8 (0.25–5 µM), compound 9 (10–250 nM), compound 10 (0.5–25 µM), compound 13 (0.5–10 µM), compound 14 (1–25 µM), and compound 15 (10–250 nM). […] After treatment, MTT was added to each well in a final concentration of 0.2 mg/mL for 4 h. Formazan product was dissolved in 200 µl of DMSO, and the absorbance was measured at 540 nm using an automatic LKB 5060-006 Micro Plate Reader (Vienna, Austria). IC50 value was defined as a concentration of the drug that inhibited cell growth by 50% and was calculated by nonlinear regression analysis using GraphPad Prism 6.0 for Windows (La Jolla, CA, USA). Relative selectivity towards cancer cells was calculated as a relation between IC50 value obtained in MRC-5 cells and an average IC50 value from four tested cancer cell lines.

DLD1 cells = test: MTT assay, cell growth inhibition, DLD1; format: cell-based; settings: Homo sapiens, DLD-1, 72 h
Method: as §1, §2

NCI-H460 cells = test: MTT assay, cell growth inhibition, NCI-H460; format: cell-based; settings: Homo sapiens, 72 h, three independent experiments
Method: as §1, §2

[1] = system: NCI-H460, NCI-H460/R, DLD1, DLD1-TxR cells; test: MTT assay, grouping of inhibitors by IC50 over the cancer cell lines; format: cell-based; settings: Homo sapiens, Figure 2b, read-out: IC50 values (grouping for Pearson correlation)
Method: When the IC50 values obtained by the MTT assay were compared to Hsp90 affinity binding IC50 values (Table 1), a positive Pearson correlation (r > 0.5) was found for all cancer cell lines (Figure 2b).
as §2

NCI-H460/R cells = test: MTT assay, cell growth inhibition, NCI-H460/R (MDR); format: cell-based, human; settings: for Efficacy in MDR NCI-H460/R cells compared with sensitive NCI-H460: 72 h; for IC50: Homo sapiens, NCI-H460, 72 h, MDR cells
Method: as §1
(§3) Human colorectal carcinoma (DLD1), non-small cell lung carcinoma (NCI-H460), and normal embryonic lung fibroblast (MRC-5) cell lines were purchased from the American Type Culture Collection, Rockville, MD. P-gp overexpressing multidrug resistant DLD1-TxR cells were selected by continuous exposure to stepwise increasing concentrations of paclitaxel from DLD1 cells, while NCI-H460/R cells were selected from NCI-H460 cells after DOX selective pressure. MDR cancer cell lines, DLD1-TxR and NCI-H460/R, and their sensitive counterparts were maintained in RPMI 1640 medium supplemented with 10% FBS, 2 mM L-glutamine, and 10,000 U/mL penicillin, 10 mg/mL streptomycin, 25 mg/mL amphotericin B solutions. MRC-5 cells were cultured in DMEM supplemented with 10% FBS, 4 g/L glucose, 2 mM L-glutamine and 5000 U/mL penicillin, 5 mg/mL streptomycin solution. All cell lines were sub-cultured at 72 h intervals using 0.25% trypsin/EDTA and seeded into a fresh medium at 8000 cells/cm^2. All cell lines were maintained at 37 °C in a humidified 5% CO2 atmosphere.
as §2

DLD1-TxR cells = test: MTT assay, cell growth inhibition, DLD1-TxR (MDR); format: cell-based, human; settings: 72 h; for IC50: Homo sapiens, MDR cells
Method: as §1, §3, §2

Hsp90 = system: Hsp90; design: method as in PMID 22538015; settings: read-out: Hsp90 Affinity binding; cited from earlier work
P-gp = P-gp (Homo sapiens, UniProt P08183); test: Rhodamine 123 accumulation assay (P-gp activity, flow cytometry); format: cell-based; design: P-gp overexpressing multidrug resistant DLD1-TxR cells were selected by continuous exposure to stepwise increasing concentrations of paclitaxel from DLD1 cells; endogenous in cells; host or cells: NCI-H460/R and DLD1-TxR (drug-selected MDR human cancer cells); settings: 30 min, Figure 3a; for P-gp activity / Rho 123 accumulation: MDR NCI-H460/R and DLD1-TxR cells, one concentration per compound (100 nM-10 µM); for P-gp activity / Rho 123 accumulation in DLD1-TxR: DLD1-TxR cells
Sequence of P-gp (P08183 whole entry): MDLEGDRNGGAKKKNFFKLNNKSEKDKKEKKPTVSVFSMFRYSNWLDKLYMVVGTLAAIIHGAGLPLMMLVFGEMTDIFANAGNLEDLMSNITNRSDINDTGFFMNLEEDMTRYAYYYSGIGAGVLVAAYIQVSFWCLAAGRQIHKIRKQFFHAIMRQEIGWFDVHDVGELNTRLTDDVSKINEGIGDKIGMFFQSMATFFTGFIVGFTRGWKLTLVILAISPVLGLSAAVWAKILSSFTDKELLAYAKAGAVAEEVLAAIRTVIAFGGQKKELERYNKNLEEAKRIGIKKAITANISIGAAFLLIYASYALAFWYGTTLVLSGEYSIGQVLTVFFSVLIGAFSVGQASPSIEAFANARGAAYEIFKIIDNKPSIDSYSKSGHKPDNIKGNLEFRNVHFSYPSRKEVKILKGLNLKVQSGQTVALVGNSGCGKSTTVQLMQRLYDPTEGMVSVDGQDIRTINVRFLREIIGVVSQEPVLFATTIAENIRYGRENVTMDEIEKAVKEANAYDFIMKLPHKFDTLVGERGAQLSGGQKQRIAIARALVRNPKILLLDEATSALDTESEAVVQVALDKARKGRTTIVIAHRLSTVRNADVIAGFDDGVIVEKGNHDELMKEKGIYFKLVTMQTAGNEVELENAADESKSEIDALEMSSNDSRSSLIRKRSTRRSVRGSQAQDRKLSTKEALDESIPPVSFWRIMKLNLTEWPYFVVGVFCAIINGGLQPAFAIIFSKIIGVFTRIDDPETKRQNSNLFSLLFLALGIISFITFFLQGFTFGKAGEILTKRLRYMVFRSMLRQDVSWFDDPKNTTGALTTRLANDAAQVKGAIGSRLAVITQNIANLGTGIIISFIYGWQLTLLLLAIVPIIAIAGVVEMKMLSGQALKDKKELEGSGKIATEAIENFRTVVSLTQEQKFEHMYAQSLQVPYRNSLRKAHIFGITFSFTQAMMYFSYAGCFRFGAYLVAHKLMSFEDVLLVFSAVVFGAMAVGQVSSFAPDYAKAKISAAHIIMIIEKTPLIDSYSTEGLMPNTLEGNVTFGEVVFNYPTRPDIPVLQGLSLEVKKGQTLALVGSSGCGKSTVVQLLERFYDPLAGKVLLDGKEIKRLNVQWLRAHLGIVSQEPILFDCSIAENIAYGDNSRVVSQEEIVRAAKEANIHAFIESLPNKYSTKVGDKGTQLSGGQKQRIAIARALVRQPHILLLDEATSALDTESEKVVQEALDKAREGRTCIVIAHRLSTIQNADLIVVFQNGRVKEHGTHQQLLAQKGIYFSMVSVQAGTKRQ
Method: To study the effect of Hsp90 inhibitors on P-gp activity in MDR cancer cells, intracellular accumulation of the P-gp substrate rhodamine 123 (Rho 123) was analyzed by flow cytometry after 30 min treatment (Figure 3a). A well-known inhibitor of P-gp activity, tariquidar (TQ), was included as a positive control.
The accumulation of Rho 123, a fluorescent P-gp substrate, was measured by flow cytometry. The intensity of the fluorescence is proportional to Rho 123 accumulation in the cell. All cell lines were seeded in adherent 6-well plates and grown overnight. DLD1-TxR and NCI-H460/R cells were treated for 30 min with the following concentrations of Hsp90 inhibitors: 500 nM compound 3, 1 µM compound 4, 10 µM compound 5, 500 nM compound 6, 500 nM compound 7, 1 µM compound 8, 500 nM compound 9, 1 µM compound 10, 1 µM compound 13, 10 µM compound 14, 100 nM compound 15. TQ (10 nM) was used as a positive control for Rho 123 accumulation. Rho 123 (5 μM) was simultaneously added with the investigated compounds and the cells were incubated at 37 °C in 5% CO2 for 30 min. The cells were then trypsinized, pelleted by centrifugation, washed with PBS and placed in ice-cold PBS. The samples were kept on ice in the dark until the analysis on CyFlow Space Partec flow cytometer (Sysmex Partec GmbH, Görlitz, Germany). The fluorescence of Rho 123 was detected on fluorescence channel 1 (FL1-H) at 530 nm. A minimum of 10,000 events were collected for each sample and the obtained results were analyzed using Summit software.

[2] = 10 µM 5, 500 nM 7, 500 nM 9, 10 nM TQ

| Compound | Change in P-gp expression, DLD1 (P-gp expression) | Change in P-gp expression, NCI-H460 (P-gp expression) | Change in P-gp expression, DLD1-TxR (P-gp expression; [2]) | Change in P-gp expression, NCI-H460/R (P-gp expression; [2]) | IC50 (MRC-5 cells) [nM] | IC50 (DLD1 cells) [nM] | IC50 (NCI-H460 cells) [nM] | IC50 [1] [nM] | Efficacy in MDR NCI-H460/R cells compared with sensitive NCI-H460 (NCI-H460/R cells) | IC50 (NCI-H460/R cells) [nM] | Efficacy in MDR DLD1-TxR cells compared with sensitive DLD1 (DLD1-TxR cells) | IC50 (DLD1-TxR cells) [nM] | IC50 (Hsp90) [nM] | P-gp activity / Rho 123 accumulation (P-gp) | Relative Selectivity (MRC-5 cells) | P-gp activity / Rho 123 accumulation in DLD1-TxR (P-gp) |
| --- | --- | --- | --- | --- | --- | --- | --- | --- | --- | --- | --- | --- | --- | --- | --- | --- |
| COc1cc2c(cc1OC)CN(CCc1ccc(NC(=O)c3cc(OC)c(OC)cc3NC(=O)c3cnc4ccccc4c3)cc1)CC2 [TQ, tariquidar] | increased P-gp expression | did not influence the P-gp expression | increased P-gp expression | did not influence the P-gp expression |  |  |  |  |  |  |  |  |  |  |  |  |
| COc1cccc2c1C(=O)c1c(-c3ccncc3)noc1C2=O [Compound 13] |  |  |  |  | 174 ± 4 | 1900 ± 36 | 1250 ± 28 | ≥ 1000 | evaded resistance mechanisms | 1060 ± 12 | collateral sensitivity | 1000 ± 16 | 1900 | decreased |  |  |
| CC(=O)Oc1cccc2c1C(=O)c1c(-c3ccncc3)noc1C2=O [Compound 15] |  |  |  |  | 250 ± 14 | 44 ± 1 | 52 ± 2 | < 1000 | maintained | 39 ± 1 | lower | 193 ± 7 | 84 |  | 3.05 | maintained a certain activity |
| COc1cccc2c1C(=O)c1c(-c3cc[n+](Cc4ccccc4)cc3)noc1C2=O [Compound 14] |  |  |  |  | 53300 ± 1730 | 7450 ± 212 | 978 ± 18 | ≥ 1000 | further compromised in the presence of MDR phenotype in both cell lines | 23600 ± 470 | further compromised in the presence of MDR phenotype in both cell lines | 10600 ± 270 | 340 |  | 5.00 | partially restored |
| O=C1c2ccccc2C(=O)c2c(-c3ccccn3)noc21 [Compound 10] |  |  |  |  | 257 ± 4 | 2640 ± 35 | 1270 ± 14 | ≥ 1000 | overcame resistance | 1375 ± 12 | collateral sensitivity | 1790 ± 36 | 1060 | reduction in activity |  |  |
| O=C1c2ccccc2C(=O)c2c(-c3cc[n+](Cc4ccccc4)cc3)noc21 [Compound 8] |  |  |  |  | 11000 ± 366 | 251 ± 3 | 159 ± 3 | ≥ 1000 | compromised in the presence of the MDR phenotype | 351 ± 5 | compromised in the presence of the MDR phenotype | 3360 ± 49 | 34 | detrimental; also recorded: modest activity | 10.69 |  |
| COc1ccc(-c2noc3c2C(=O)c2ccccc2C3=O)cc1 [Compound 4] |  |  |  |  | 1750 ± 83 | 1520 ± 54 | 935 ± 48 |  | remained higher than in the corresponding sensitive cells | 579 ± 18 | remained higher than in the corresponding sensitive cells | 1060 ± 25 | 5840 | did not have any positive effects | 1.71 |  |
| CC(=O)O[C@H]1C(=O)[C@@]2(C)[C@H]([C@H](OC(=O)c3ccccc3)[C@]3(O)C[C@H](OC(=O)[C@H](O)[C@@H](NC(=O)c4ccccc4)c4ccccc4)C(C)=C1C3(C)C)[C@]1(OC(C)=O)CO[C@@H]1C[C@@H]2O [PTX, paclitaxel] | significantly increased P-gp expression | significantly increased P-gp expression |  |  |  |  |  |  |  |  |  |  |  |  |  |  |
| O=C1c2ccccc2C(=O)c2c(-c3ccccc3)noc21 [Compound 3] |  |  |  |  | 636 ± 23 | 925 ± 32 | 785 ± 32 | < 1000 | better efficacy in cells with MDR phenotype | 599 ± 20 | better efficacy in cells with MDR phenotype | 644 ± 20 | 7850 | did not influence the P-gp activity |  |  |
